According to paper PMC9413514, “Accessing Lipophilicity and Biomimetic Chromatography Profile of Biologically Active Ingredients of Botanicals Used in the Treatment of Inflammatory Bowel Disease” (Pharmaceuticals, 2022):

What was measured:
[1] = system: α1-acid glycoprotein (AGP); test: AGP-HPAC assay (plasma protein binding); type: in vitro ADME; conditions: Chiralpak-AGP, pH 7.4, 25 °C; spread is RSD in %
Source text: The gradient retention times obtained by HSA-HPAC and AGP-HPAC assays were standardized using a calibration set of compounds with known percentage of plasma protein binding data and procedure described in our previously published study. […] This verification assured that the protein affinity indices obtained by HPAC assays depict not only unspecific generally lipophilicity-driven interactions, but also highly specific recognition forces responsible of enantioselectivity.
(§1) Stock solutions of analytes and calibration standards were prepared by dissolving 10 mg of each solute in 10 mL of methanol and kept at 4 °C. Working solutions were freshly prepared at the beginning of each day by dilution of the stock solutions to 100 μg/mL with methanol for TLC measurements or mobile phase for HPLC measurements. Before use, the samples were sonicated (Elmasonic XtraTT, Elma Schmidbauer) for 10 min at 25 °C and all working solutions were filtered through 0.2 µm polyethersulfone filters (Obrnuta faza). To protect analytes from photodegradation, the amber glass HPLC vials were used.
The binding of biologically active compounds to the plasma proteins was investigated using affinity chromatographic columns by ChromTech (Cedex, France) containing immobilized human serum albumin (HSA) (Chiralpak-HSA, length 50 mm, i.d. 4.6 mm, particle size 5 µm) and α1-acid glycoprotein (AGP) (Chiralpak-AGP, length 50 mm, i.d. 4.6 mm, particle size 5 µm) and Agilent HPLC 1100 instrument. The 20 mM potassium phosphate buffer with the pH adjusted to 7.4 and iso-propanol were used as mobile phase components A and B. Retention data were collected at 25.0 ± 0.1 °C using gradient program as follows: 0 min/0% B, 6 min/30% B, 15 min/30% B and 20 min/0% B. Injection volume was set at 10 µL and the measurements were carried out at 25.0 ± 0.1 °C with flow rate of 1.5 mL/min. The absorbance of the analytes during a chromatographic run was collected in the spectral range 200–400 nm, and the detection wavelength for each analyte was the one providing the maximum peak height.

[2] = IAM-HPLC assay (lipophilicity, affinity to phospholipids); type: physicochemical; conditions: for logk0 IAM (HPLC lipophilicity index, intercept of linear equation): IAM P.C.DD2 column, PBS pH 7.4/methanol, extrapolated to zero organic modifier
Method: IAM columns provide potential to simulate membrane permeability since the amphiphilic character of phospholipid functional groups plays an important role in IAM retention especially when charged molecules are analysed.
as §1
C18-HPLC assay was carried out at Agilent HPLC 1100 and Zorbax SB C18 chromatographic column (length 250 mm.6 mm, particle size 5 µm) by Agilent Technologies, while IAM-HPLC assay was conducted using IAM P.C.DD2 chromatographic column (length 50 mm, i.d. 3.0 mm, particle size […]) by Regis Technologies (Morton Grove, IL, USA). Retention data were collected at 25.0 ± 0.1 °C using isocratic method working with mobile phases, mixing the respective amounts of PBS (10 mM, pH 7.4) and methanol from 35% to 80% of organic solvent in 5% increment. Each mobile phase was shaken vigorously and filtrated through membrane filter, no. 66, diameter 47 mm, pore size 0.45 µm by Supelco and degassed by sonication 5 min before use. The injection volume was set at 10 µL, and the measurements were carried out at flow rate 1.0 mL/min. Natrium nitrate solution (0.1 mg/mL in mobile phase) was used as the marker of dead-time. The absorbance of the analytes during a chromatographic run was collected in the spectral range of 200–400 nm, and the detection wavelength for each analyte was the one providing the maximum peak height.

[3] = Miniaturized shake-flask method (n-octanol/PBS pH 7.4) with HPLC analysis; type: physicochemical; conditions: for logD at 1 h: n-octanol/PBS 20 mM pH 7.4, 25 °C, spread is RSD in %, read-out: log D7.4 ± RSD (%) (n = 3); for Δ log D7.4 (lower than curcumin): compared to curcumin
Method: Stock solution of biologically active ingredients of botanicals used in IBD treatment were prepared using dimethylsulfoxide in concentration of 2 mg/mL. Working solutions were prepared daily by dilution of the stock solutions with PBS (20 mM, pH 7.4) pre-saturated with n-octanol. Before the injection into the HPLC system all solutions were sonicated for 15 min at room temperature in Elmasonic XtraTT (Elma Schmidbauer, Singen, Germany) and filtered through 0.2 μm polyethersulfone filters (Obrnuta faza, Pazin, Croatia).
The pre-saturated solutions of n-octanol and PBS (20 mM, pH 7.4) were used for determination of logarithm of distribution coefficient (log D7.4). The n-octanol and aqueous phase (mixture 1:1, v/v) were mutually saturated for 24 h in an orbital shaker-incubator ES-20/60 (Biosan, Riga, Latvia) at 100 oscillations per min at 25.0 ± 0.1 °C. The prepared mixture was left resting for at least 12 h in the thermostat at 25.0 ± 0.1 °C to ensure complete separation of the two phases. Until analysis, separated saturated solutions were kept in refrigerator at 4 °C.
Shake-flask procedure was conducted in amber 2 mL HPLC vials. 300 μL of the working solution was added to 1500 μL of n-octanol pre-saturated with PBS. To prevent material loss due to volatilisation, the two-phase system nearly filled the entire volume of the test vessels. All n-octanol–buffer mixtures were first vortexed for 1 min and then shaken for 1 h (150 oscillations per min) at room temperature (25.0 ± 0.1 °C) to reach equilibrium and phase distribution. Afterward, the samples were centrifuged using a Z 326 K tabletop centrifuge (HERMLE Labortechnik, Wehingen, Germany) for 30 min at 4000× g and 25 °C to ensure that possible emulsions were removed.
After equilibration and phase separation, the aqueous phase of all samples was analysed on an Agilent HPLC 1100 (Agilent Technologies, Waldbronn, Germany) with diode array detection. Analysis was conducted with a Zorbax SB C18 column (length 150 mm, i.d. 4.6 mm, particle size 5 μm) by Agilent Technologies. 10 min chromatographic runs were performed at 25.0 ± 0.1 °C in isocratic mode using a methanol/water mixture (60/40, v/v) with addition of 0.1% of formic acid as mobile phase modifier at a flow rate of 1.0 mL/min. The mobile phase was filtered through a membrane filter, no. 66, diameter 47 mm, pore size 0.45 µm (Supelco, Bellefonte, PA, USA). The vials were placed in the rack on the autosampler at 25 °C. The injection volume was 10 µL, with a needle offset of 0.5 mm. To avoid any carryover of the analyte-containing n-octanol phase, the outside of the syringe was subsequently washed in methanol before injection. The absorbance of the analytes during a chromatographic run was collected in the spectral range 200–400 nm, and the detection wavelength for each analyte was the one providing the maximum peak height.

Row | AGP Binding ± RSD (%) (n = 3) [1] | logk0 IAM (HPLC lipophilicity index, intercept of linear equation) [2] | logD at 1 h [3] | difference in logk0 IAM values versus andrographolide ([2]; compared to andrographolide) | Δ log D7.4 (increase compared to andrographolide) ([3]; compared to andrographolide) | Structure (SMILES) | Δ log D7.4 (lower than curcumin) [3]
1 | 37.13 ± 1.11% | y = −0.0464 x + 2.2763 | 1.32 | – | – | C=C1CC[C@@H]2[C@](C)(CO)[C@H](O)CC[C@@]2(C)[C@@H]1C/C=C1/C(=O)OC[C@H]1O [Andrographolide, andrographolide] | –
2 | 64.95 ± 0.41% | y = −0.0620 x + 3.4572 | 1.51 | 1.18 units | 0.19 units | C=C1CC[C@@H]2[C@](C)(CO[C@@H]3O[C@H](CO)[C@@H](O)[C@H](O)[C@H]3O)CCC[C@@]2(C)[C@@H]1CCC1=CCOC1=O [Neoandrographolide, neoandrographolide] | –
3 | 71.98 ± 1.33% | y = −0.0512 x + 3.2026 | 1.67 | – | – | O=C(/C=C/C=C/c1ccc2c(c1)OCO2)N1CCCCC1 [Piperine, piperine] | –

Row | Structure (SMILES) | AGP Binding ± RSD (%) (n = 3) [1] | logk0 IAM (HPLC lipophilicity index, intercept of linear equation) [2] | logD at 1 h [3] | difference in logk0 IAM values versus andrographolide ([2]; compared to andrographolide) | Δ log D7.4 (increase compared to andrographolide) ([3]; compared to andrographolide) | Δ log D7.4 (lower than curcumin) [3]
4 | O=C(C=Cc1ccc(O)cc1)CC(=O)C=Cc1ccc(O)cc1 [Bisdemetoxycurcumin, bisdemetoxycurcumin] | 83.14 ± 1.15% | y = −0.0568 x + 4.6386 | 1.72 | – | – | 0.22 units
5 | COc1cc(/C=C/C(=O)CC(=O)/C=C/c2ccc(O)cc2)ccc1O [Demetoxycurcumin, demetoxycurcumin] | 82.92 ± 1.15% | y = −0.0555 x + 4.4229 | 1.52 | – | – | 0.42 units
